Consider two compounds from patent US12178791B2, “Haloallylamine sulfone derivative inhibitors of lysyl oxidases and uses thereof” (Syntara Limited, priority 2018, dated 2024).

pIC50: −log10 of the molar value. Where a name gives a salt, the structure may show the parent alone.

The target of one data set is LOXL1 (Homo sapiens (Human), UniProt Q08397). Briefly: Jump dilution experiment, sustained inhibition of LOXL1.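 Note: 30× IC50 used only where needed so inhibitor exceeds enzyme concentration.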 Format: biochemical. As to conditions: jump dilution after 40 min at 37 °C with 10× or 30× IC50; vs non-inhibited controls. In outline: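 Enzyme preincubated with inhibitor at 100× the inhibition-study enzyme concentration, then diluted 50× in assay buffer and 2× in Amplex Red–HRP–putrescine mix. Fluorescence read; activity expressed as % signal recovery after a set time versus uninhibited controls.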
Sequence of LOXL1 (Q08397 96-574, species assumed): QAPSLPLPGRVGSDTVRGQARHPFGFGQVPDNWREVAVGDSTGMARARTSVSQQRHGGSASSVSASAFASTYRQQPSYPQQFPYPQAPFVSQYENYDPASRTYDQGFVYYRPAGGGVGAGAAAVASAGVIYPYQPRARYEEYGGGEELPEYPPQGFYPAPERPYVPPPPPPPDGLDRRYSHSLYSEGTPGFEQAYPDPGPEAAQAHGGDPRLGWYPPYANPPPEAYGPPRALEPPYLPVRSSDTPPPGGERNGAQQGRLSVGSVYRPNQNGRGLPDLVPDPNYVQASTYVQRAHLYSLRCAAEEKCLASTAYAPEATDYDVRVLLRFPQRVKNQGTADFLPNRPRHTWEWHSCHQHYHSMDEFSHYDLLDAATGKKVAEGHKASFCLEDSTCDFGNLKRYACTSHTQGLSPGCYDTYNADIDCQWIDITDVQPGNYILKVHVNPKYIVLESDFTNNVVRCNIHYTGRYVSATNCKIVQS

Data set [1] addresses T1, LOXL2 (Homo sapiens (Human), UniProt Q9Y4K0). Briefly: Jump dilution experiment, sustained inhibition of LOXL2.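 Note: 30× IC50 used only where needed so inhibitor exceeds enzyme concentration.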 It is filed as biochemical. As to conditions: jump dilution after 40 min at 37 °C with 10× or 30× IC50; vs non-inhibited controls. The procedure: Jump Dilution experiment: The assay was developed using a 96 well format and the starting enzyme concentration was set 100 times higher than for the inhibition studies. […] After the incubation, the mixture was diluted 50× in assay buffer, followed by a further 2× dilution in Amplex Red-horseradish peroxidase-putrescine reaction mix (same as per the inhibition studies) prior to the fluorescent measurement. Results were expressed in % recovery of the signal after a specified time by comparison with non-inhibited controls.

The target of data set [2] is T1, LOXL2. Briefly: LOXL2 inhibition, Amplex Red oxidation assay. It is filed as biochemical. As to conditions: 30 min preincubation at 37 °C, putrescine substrate. The gist of the method:
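LOXL2 in 1.2 M urea, 50 mM sodium borate pH 8.2 was preincubated with compound (11-point curve) for 30 min at 37 °C; mofegiline/pargyline were added only for non-purified enzyme. Reaction mix held 2× KM putrescine (10 mM), 120 μM Amplex Red and 1.5 U/mL HRP. H2O2 fluorescence (ex 565/em 590 nm) was read over 30 min, and IC50 came from slopes.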

A short description of data set [3]: In vivo pharmacokinetics, plasma concentration after p.o. dosing. On the set-up: species or system Wistar rats. As to conditions: for concentration at 0.25 h / concentration at 0.5 h / concentration at 1 h / concentration at 2 h / concentration at 3 h / concentration at 5 h / concentration at 8 h / concentration at 4 h: male, Wistar, plasma, po, rat; for concentration at 0.5 h: 0.50 hours; for plasma concentrations relative to the IC50: rat plasma, after 8 hours. The procedure: Test compounds (10 mg/kg and 30 mg/kg in PBS, p.o. n=3) were administered to 7-9 weeks old male Wistar rats. Test compound blood samples were collected at time points from 0.25 h-8.00 h (Compound 1); 0.5 h-8.00 h (Compound 33) post administration, from tail vein.
Sample preparation: 20 μL of calibration samples (in single), QC samples (in duplicate) and rat plasma samples were mixed with 60 μL acetonitrile containing internal standard (IS; 200 ng/mL of tolbutamide and 50 ng/mL propanolol) in Eppendorf tubes. The mixture was vortexed for 1 min, then centrifuged for 10 min, 50 μL of supernatant was transferred to a 96 well-plate with 100 μL water. After shaking for 10 min, 10 μL was injected into the liquid chromatography mass spectrometry (LC-MS/MS) system for analysis.
HPLC: Agilent 1100; Mass Spectrometer: API 4000
Column: Phenomenex Gemini C18 5 μm 50×4.6 mm
Mobile phase: 0.1% formic acid in water, 0.1% formic acid in acetonitrile
HPLC: Shimadzu LC30AD; Mass Spectrometer: API 4000
For dilution samples: 10 μL sample was added to 90 μL blank rat plasma. The mixture was precipitated with 300 μL acetonitrile containing IS in Eppendorf tubes. The mixture was vortexed for 1 min, then centrifuged for 10 min, 50 μL supernatant was transferred to a 96 well-plate with 100 μL water. After shaking for 10 min, 10 μL was injected into the LC-MS/MS system for analysis. Determined, mean plasma concentrations for Compounds 1 and 33 are shown in Table 5 and Table 6 respectively.

T1 sequence (Q9Y4K0 26-774): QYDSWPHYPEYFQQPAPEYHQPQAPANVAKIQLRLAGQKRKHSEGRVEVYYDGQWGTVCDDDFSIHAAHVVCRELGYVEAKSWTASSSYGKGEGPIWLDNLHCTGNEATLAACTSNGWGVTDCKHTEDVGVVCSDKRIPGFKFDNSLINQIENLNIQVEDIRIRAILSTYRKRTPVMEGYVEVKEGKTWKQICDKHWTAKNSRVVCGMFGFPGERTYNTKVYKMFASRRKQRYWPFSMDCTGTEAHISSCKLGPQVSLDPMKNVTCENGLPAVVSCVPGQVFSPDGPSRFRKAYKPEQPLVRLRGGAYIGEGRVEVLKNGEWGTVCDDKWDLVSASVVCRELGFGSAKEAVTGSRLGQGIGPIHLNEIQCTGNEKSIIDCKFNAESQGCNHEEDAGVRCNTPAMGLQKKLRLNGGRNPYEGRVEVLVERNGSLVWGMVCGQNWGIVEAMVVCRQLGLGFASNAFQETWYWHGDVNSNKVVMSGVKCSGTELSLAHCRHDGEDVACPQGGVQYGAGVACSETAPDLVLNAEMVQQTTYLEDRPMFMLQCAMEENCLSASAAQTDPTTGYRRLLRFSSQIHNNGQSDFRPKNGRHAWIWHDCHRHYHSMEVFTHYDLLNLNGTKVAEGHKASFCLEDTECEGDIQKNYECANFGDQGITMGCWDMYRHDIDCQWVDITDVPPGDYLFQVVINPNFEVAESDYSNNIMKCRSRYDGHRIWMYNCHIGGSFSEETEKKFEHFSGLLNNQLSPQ

Usually pIC50 stands for −log10 of the IC50, conventionally taken in molar units. Read a low pIC50 as a large IC50. On to `NC/C=C(\F)CS(=O)(=O)c1ccccc1` [Compound 1, (Z)-3-fluoro-4-(phenylsulfonyl)but-2-en-1-amine hydrochloride], for which the “LOXL1 - Recovery of activity. (%)” value on LOXL1 is given as 2.4%. Besides, the “LOXL2 - Recovery of activity. (%)” value at LOXL2 [1] is 9.5%. The compound also gave a pIC50 against LOXL2 [2] above 5.00. In data set [3] (10 mg/kg p.o.), this compound came in with a concentration at 0.25 h of 379 ng/mL, a concentration at 0.5 h of 736 ng/mL, a concentration at 1 h of 450 ng/mL and a concentration at 2 h of 134 ng/mL. In data set [3] (10 mg/kg p.o.), this compound yielded a concentration at 3 h of 66.4 ng/mL, a concentration at 5 h of 27.2 ng/mL and a concentration at 8 h of 6.4 ng/mL. Further, in data set [3] (30 mg/kg p.o.), the concentration at 0.25 h was 1060 ng/mL, the concentration at 0.5 h amounted to 2090 ng/mL, the concentration at 1 h worked out at 1200 ng/mL and the concentration at 2 h is 657 ng/mL. In data set [3] (30 mg/kg p.o.), this compound returned a concentration at 3 h of 238 ng/mL, a concentration at 5 h of 41.3 ng/mL and a concentration at 8 h of 13.5 ng/mL. Moreover, the “plasma concentrations relative to the IC50” value in data set [3] was “far below the IC50”.

As for `NC/C=C(\F)CS(=O)(=O)c1cccc2cccnc12` [Compound 33, (Z)-3-fluoro-4-(quinolin-8-ylsulfonyl)but-2-en-1-amine dihydrochloride], on LOXL1, the “LOXL1 - Recovery of activity. (%)” value was 4.5%. In addition, the “LOXL2 - Recovery of activity. (%)” value on LOXL2 [1] is listed as 6.9%. Also, the negative-log IC50 (pIC50) at LOXL2 [2] is above 6.00. Besides, in data set [3] (10 mg/kg p.o.), the concentration at 0.5 h was determined as 771 ng/mL, the concentration at 1 h is 548 ng/mL, the concentration at 2 h came out at 246 ng/mL and the concentration at 4 h was determined as 56.4 ng/mL. The concentration at 8 h in data set [3] (10 mg/kg p.o.) came to 8.4 ng/mL. In data set [3] (30 mg/kg p.o.), this compound showed a concentration at 0.5 h of 3710 ng/mL, a concentration at 1 h of 3010 ng/mL, a concentration at 2 h of 1470 ng/mL and a concentration at 4 h of 185 ng/mL. In data set [3] (30 mg/kg p.o.), this compound returned a concentration at 8 h of 13.7 ng/mL. In addition, in data set [3], the “plasma concentrations relative to the IC50” value was “far below the IC50”.
